≈ marks a conversion by molar mass, not a printed value.
Tests used:
[1] = test system: outer membrane of E. coli CFT073; test: Outer membrane permeabilization, NPN uptake assay; type: cell-based, Escherichia coli; conditions: sub-MIC; concentration giving maximal increase in NPN uptake
Description: The cells are harvested, washed with 5 mM HEPES buffer (pH 7.2), and resuspended in the same volume (10 mL) of 5 mM HEPES buffer (pH 7.2) containing 1 mM N-ethylmaleimide (NEM, Sigma-Aldrich Canada). Aliquots (1 mL) are mixed with NPN to a final concentration of 10 μM (in cell suspension) and fluorescence is measured using the microplate reader (ex/em 350/420 nm).

P. mirabilis HI4320 [2] = test: Bacterial colony forming ability (CFU counts after exposure); type: cell-based, Proteus mirabilis; conditions: log decrease vs untreated control, 4 × MIC, 10 min, CTAB 10 μM
Description: (§1) The BacLight kit (L-13152, Invitrogen™, Life Technologies Inc., Canada) is used to assess cell membrane damage. Overnight bacterial cultures are diluted 1:40 in fresh MHBII broth to a final volume of 5 mL, grown to an OD600 of 0.5-0.6, washed with filter-sterilized 10 mM phosphate buffered saline (PBS, pH 7.0) and resuspended in 1/10 of the original volume. […] Cultures are incubated at room temperature (21±2° C.) on a tube rocker for 10 min. At the end of the incubation period, an aliquot is taken for CFU counts and the remaining suspension is washed with 10 mM PBS and resuspended to an OD600) of 0.3. An aliquot (100 μL) of each bacterial suspension is removed and added to a 96-well, black, clear-bottom plate (Corning™, Fisher Scientific, ON, Canada) along with an equal volume of the BacLight™ reagent (2× stock solution, L13152, Invitrogen™, Life Technologies Inc., Canada) and the plates are incubated for 10 min at room temperature in the dark. At the end of the incubation period, fluorescence intensity is recorded for both kit components, SYTO-9 (ex/em 485/530 nm) and propidium iodide (ex/em 485/645 nm), using the microplate reader. Fluorescence readings from samples are normalized to the values obtained from untreated control to determine the ratio of membrane compromised cells to cells with intact membrane. Cetyltrimethylammonium bromide (CTAB, Sigma-Aldrich Canada), a cationic detergent that is known to cause membrane damage, is used at concentration of 10 μM as a positive control for membrane disruption.

E. coli CFT073 biofilm = test: Biofilm formation, microtitre plate crystal violet assay; type: cell-based, Escherichia coli; conditions: p<0.05
Description: Biofilm formation is quantified using the standard microtitre plate model. […] Aliquots (100 μL) of these cultures are transferred into the wells of polystyrene, flat bottom, non-treated 96 well plates (Falcon™, Corning™), in triplicate. For all assays, biofilms are allowed to develop for 16 h at 37° C. under static conditions, after which OD600 values are recorded, the spent broth is decanted from the wells, and the wells are gently rinsed three times with DI water. The washed biofilm is stained with crystal violet (CV). For CV stain assay, 100 μL of 0.1% (w/v) CV is loaded in each well and the plates are incubated for 15 min under static conditions at room temperature. The wells are subsequently rinsed with DI water to remove excess dye and the CV adsorbed to the biomass in each well is solubilized in 100 μL of absolute ethanol for 10 min. The solubilized CV is then quantified (as OD570) using a microplate reader. Control experiments are performed with cell-free broth to adjust for the background signal.

P. aeruginosa PAO1 [3] = test: Bacterial colony forming ability (CFU counts after exposure); type: cell-based, Pseudomonas aeruginosa; conditions: log decrease vs untreated control; 4 × MIC, 10 min; CTAB 10 μM
Description: as §1

P. aeruginosa PA14 [4] = test: as above; type: cell-based, Pseudomonas aeruginosa; conditions: log decrease vs untreated control, 4 × MIC, 10 min, CTAB 10 μM
Description: as §1

P. aeruginosa PAO1 [5] = test: Checkerboard microdilution assay (growth inhibition synergy); type: cell-based, Pseudomonas aeruginosa
Outline: (§2)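 Two-fold serial dilutions of each agent were crossed in MHB-II, inoculated with 10^6 CFU mL^−1 and incubated static at 37° C. for 18 h. FICI is the sum of each component's MIC in combination divided by its MIC alone; […] synergy, 0.5–1 indifference, >4 antagonism.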

P. aeruginosa PA14 [6] = test: as above; type: cell-based, Pseudomonas aeruginosa
Outline: as §2

E. coli CFT073 = test: Determination of minimum inhibitory concentration (MIC); type: cell-based; conditions: Escherichia coli, CFT073, 18 h
P. aeruginosa PAO1 [7] = test: as above; type: cell-based; conditions: Pseudomonas aeruginosa, PAO1, 18 h
P. mirabilis HI4320 [8] = test: as above; type: cell-based; conditions: Proteus mirabilis, HI4320, 18 h
P. aeruginosa PA14 [9] = test: as above; type: cell-based; conditions: Pseudomonas aeruginosa, PA14, 18 h
[10] = ciprofloxacin in combination with the labelled phenolic constituent
[11] = labelled constituent + gallic acid, * = synergistic
[12] = labelled constituent combined with gallic acid
[13] = labelled phenolic constituent in combination with ciprofloxacin

Oc1ccccc1O [catechol, 1,2-dihydroxybenzene]
Minimum permeabilization concentration (NPN assay) [1]: 0.06 mg/mL
Bacterial colony forming ability (Δ log CFU mL^−1) (P. mirabilis HI4320 [2]): 3.2 Δ log CFU mL^−1
Bacterial colony forming ability (Δ log CFU mL^−1) (P. mirabilis HI4320 [2]; listed as Catechol): ≥ 1.5 Δ log CFU mL^−1
inhibition of monoculture biofilm formation (OD570/OD600) (E. coli CFT073 biofilm; substance alone at sub-lethal concentrations, 16 h): significant inhibitory effects
inhibitory effect on biofilm formation, with ciprofloxacin (E. coli CFT073 biofilm; with ciprofloxacin, both at sub-lethal concentrations): significant inhibitory effects
Bacterial colony forming ability (Δ log CFU mL^−1) (P. aeruginosa PAO1 [3]): 1.5 Δ log CFU mL^−1
Bacterial colony forming ability (Δ log CFU mL^−1) (P. aeruginosa PA14 [4]): 1.9 Δ log CFU mL^−1
Bacterial colony forming ability (Δ log CFU mL^−1) (P. aeruginosa PA14 [4]; listed as Catechol): ≥ 1.5 Δ log CFU mL^−1
FIC of ciprofloxacin (P. aeruginosa PAO1 [5]; [10]): 0.25
FICI, gallic acid (P. aeruginosa PAO1 [5]; [11]): 0.5*
FIC, gallic acid (P. aeruginosa PAO1 [5]; [12]): 0.25
FIC of compound (P. aeruginosa PAO1 [5]; [13]): 0.25
FIC of ciprofloxacin (P. aeruginosa PA14 [6]; [10]): 0.25
FICI, gallic acid (P. aeruginosa PA14 [6]; [11]): 0.37*
FIC, gallic acid (P. aeruginosa PA14 [6]; [12]): 0.25
FIC of compound (P. aeruginosa PA14 [6]; [13]): 0.25
MIC (E. coli CFT073): 1250 µg/mL (≈ 11.4 mM)
MIC (P. aeruginosa PAO1 [7]): 2500 µg/mL (≈ 22.7 mM)
MIC (P. mirabilis HI4320 [8]): 1250 µg/mL (≈ 11.4 mM)
MIC (P. aeruginosa PA14 [9]): 2500 µg/mL (≈ 22.7 mM)
